Source: patent US7976843B2, “Method for screening peptides for use in immunotherapy” (Institut National de la Santa et de la Recherche Medicale …, priority 2000, dated 2011)

Tested on: RMA-HHD cells infected with vac-HIVgag, vac-neu, vac-gp100 or flu PR8
Parameters: species or system HHD mice
Details: mouse, in vivo

## PLTSIISAV [HER-2/neu 650]
  killing of RMA-HHD cells infected with virus expressing the antigen vs vac-WT: kill target cells infected with vac-neu, but not targets infected with vac-WT

## ILLVVVLGV [HER-2/neu 661]
  killing of RMA-HHD cells infected with virus expressing the antigen vs vac-WT: exception
